Patent US9096532B2, “Pyrazole inhibitors of COX-2 and sEH” (The Regents of the University of California, priority 2010, dated 2015)

Columns and labels:
ovine COX-1 = target: T1, ovine COX-1 (Ovis aries, UniProt P05979); test: Cyclooxygenase inhibition assay (COX Fluorescent Inhibitor Screening Assay Kit), COX-1; format: biochemical; settings: read-out: COX-1 (% inhibition)
T1 construct: purchased Cayman Chemical 700100
T1 sequence (P05979 25-600): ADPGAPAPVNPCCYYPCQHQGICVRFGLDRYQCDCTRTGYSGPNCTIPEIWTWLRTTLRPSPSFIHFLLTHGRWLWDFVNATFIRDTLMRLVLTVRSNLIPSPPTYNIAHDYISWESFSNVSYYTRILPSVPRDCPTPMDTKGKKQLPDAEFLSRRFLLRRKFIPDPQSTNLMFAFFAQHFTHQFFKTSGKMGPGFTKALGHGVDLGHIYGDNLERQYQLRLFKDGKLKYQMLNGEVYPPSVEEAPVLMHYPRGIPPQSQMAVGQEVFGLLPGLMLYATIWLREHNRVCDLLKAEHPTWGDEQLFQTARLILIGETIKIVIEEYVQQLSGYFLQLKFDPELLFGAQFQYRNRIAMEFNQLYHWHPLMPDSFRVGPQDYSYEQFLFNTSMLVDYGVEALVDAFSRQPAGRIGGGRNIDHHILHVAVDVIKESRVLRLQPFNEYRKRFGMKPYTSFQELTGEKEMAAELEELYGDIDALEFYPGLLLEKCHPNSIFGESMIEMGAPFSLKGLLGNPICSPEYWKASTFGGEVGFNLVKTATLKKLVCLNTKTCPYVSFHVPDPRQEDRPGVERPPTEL
Procedure: (§1) Stock solutions of test compounds are dissolved in a minimum volume of DMSO. 10 μl of various concentrations of the test compound solutions, e.g., [I]final between 0.01 and 100 μM, are added to a series of supplied reaction buffer solutions (150 μl, 100 mM Tris-HCl, pH 8.0) with either COX-1 or COX-2 (10 μl) enzyme in the presence of Heme (10 μl) and a fluorometric substrate (10 μl). The reactions are initiated by quickly adding 10 μl of arachidonic acid solution and then incubating the system for two minutes at room temperature. […] The intensity of this fluorescence is proportional to the amount of resorufin, which is proportional to the amount of PGG2 present in the well during the incubation. Percent inhibition is calculated by comparison from the 100% initial activity sample value (no inhibitor).
as §1, with “compounds were” for “compounds are”, “μM, were” for “μM, are”, “reactions were” for “reactions are”, “then incubated” for “then incubating the system”, “inhibition was” for “inhibition is”

[1] = Pharmacokinetics in mice by oral cassette dosing; format: in vivo; settings: oral cassette dosing at 5 mg/kg, blood
Procedure: All the animal experiments were performed according to protocols approved by the Animal Use and Care Committee of University of California, Davis. […] Each cassette was orally administered to 4 mice at a dose of 5 mg/kg in 120-150 μl of vehicle depending on animal weight. […] The instrument was equipped with a linear ion trap and a Turbo V ion source and was operated in negative ion MRM mode. […] This was maintained for 3 min, then the gradient was returned to 30% solvent B in 2 min. The flow rate was 0.4 mL/min. The injection volume was 10 μL and the samples were kept at 4° C. in the auto sampler.

| SMILES | inhibition at 100 µM (ovine COX-1) [%] | AUC [1] [µM·h] | Cmax [1] [nM] | Tmax [1] [h] | t1/2 [1] [h] |
| --- | --- | --- | --- | --- | --- |
| NS(=O)(=O)c1ccc(-n2nc(NC(=O)Nc3cccc(C(F)(F)F)c3)cc2-c2ccccc2)cc1 [Compound 7, 4-{5-Phenyl-3-[3-(3-trifluoromethyl-phenyl)-ureido]-pyrazol-1-yl}-benzenesulfonamide] | 33.9 | – | – | – | – |
| CS(=O)(=O)c1ccc(-n2nc(CNC(=O)NC34CC5CC(CC(C5)C3)C4)cc2-c2ccccc2)cc1 [Compound 11a, 1-Adamantan-1-yl-3-[1-(4-methanesulfonyl-phenyl)-5-phenyl-1H-pyrazol-3-ylmethyl]-urea] | 12.7 | – | – | – | – |
| CS(=O)(=O)c1ccc(-n2nc(CNC(=O)Nc3ccc(OC(F)(F)F)cc3)cc2-c2ccccc2)cc1 [Compound 11d, 1-[1-(4-Methanesulfonyl-phenyl)-5-phenyl-1H-pyrazol-3-ylmethyl]-3-(4-trifluoromethoxy-phenyl)-urea] | 10.4 | – | – | – | – |
| CS(=O)(=O)c1ccc(-n2nc(CNC(=O)Nc3ccc(C(F)(F)F)cc3)cc2-c2ccccc2)cc1 [Compound 11e, 1-[1-(4-Methanesulfonyl-phenyl)-5-phenyl-1H-pyrazol-3-ylmethyl]-3-(4-trifluoromethyl-phenyl)-urea] | 10.7 | – | – | – | – |
| CS(=O)(=O)c1ccc(-n2nc(CNC(=O)Nc3cccc(C(F)(F)F)c3)cc2-c2ccccc2)cc1 [Compound 11f, 1-[1-(4-Methanesulfonyl-phenyl)-5-phenyl-1H-pyrazol-3-ylmethyl]-3-(3-trifluoromethyl-phenyl)-urea] | 7.8 | – | – | – | – |
| NS(=O)(=O)c1ccc(-n2nc(CNC(=O)Nc3cccc(C(F)(F)F)c3)cc2-c2ccccc2)cc1 [Compound 11g, 4-{5-Phenyl-3-[3-(3-trifluoromethyl-phenyl)-ureidomethyl]-pyrazol-1-yl}-benzenesulfonamide] | 16.9 | – | – | – | – |
| CC(C)(C)c1cc(CNC(=O)Nc2cccc(C(F)(F)F)c2)nn1-c1ccc(S(C)(=O)=O)cc1 [Compound 11h, 1-[5-tert-Butyl-1-(4-methanesulfonyl-phenyl)-1H-pyrazol-3-ylmethyl]-3-(3-trifluoromethyl-phenyl)-urea] | 2.4 | – | – | – | – |
| CS(=O)(=O)c1ccc(-n2nc(CCCNC(=O)Nc3cccc(C(F)(F)F)c3)cc2-c2ccccc2)cc1 [Compound 21a, 1-{3-[1-(4-Methanesulfonyl-phenyl)-5-phenyl-1H-pyrazol-3-yl]-propyl}-3-(3-trifluoromethyl-phenyl)-urea] | 6.4 | – | – | – | – |
| NS(=O)(=O)c1ccc(-n2nc(CCCNC(=O)Nc3ccccc3)cc2-c2ccccc2)cc1 [Compound 21e, 4-{5-Phenyl-3-[3-(3-phenyl-ureido)-propyl]-pyrazol-1-yl}-benzenesulfonamide] | 15.8 | 0.125 | 100 | 0.5 | 3.1 |
| NS(=O)(=O)c1ccc(-n2nc(CCCNC(=O)NC34CC5CC(CC(C5)C3)C4)cc2-c2ccccc2)cc1 [Compound 21f, 4-{3-[3-(3-Adamantan-1-yl-ureido)-propyl]-5-phenyl-pyrazol-1-yl}-benzenesulfonamide] | 6.7 | 0.022 | 20 | 0.5 | 1.7 |
| NS(=O)(=O)c1ccc(-n2nc(CCCNC(=O)NC3CCCCCC3)cc2-c2ccccc2)cc1 [Compound 21g, 4-{3-[3-(3-Cycloheptyl-ureido)-propyl]-5-phenyl-pyrazol-1-yl}-benzenesulfonamide] | 10.2 | 0.1 | 42 | 0.5 | 3.5 |
| NS(=O)(=O)c1ccc(-n2nc(CCCNC(=O)Nc3ccc(Cl)cc3)cc2-c2ccccc2)cc1 [Compound 21h, 4-(3-{3-[3-(4-Chloro-phenyl)-ureido]-propyl}-5-phenyl-pyrazol-1-yl)-benzenesulfonamide] | 15.2 | 0.375 | 190 | 0.8 | 2.4 |
